Laboratory results taken from PMC6273991, “Cytotoxic Labdane Diterpenes from Hedychium ellipticum Buch.-Ham. ex Sm” (Molecules, 2016).
pIC50: −log10 of the molar value. Converted amounts (≈) assume the structure as drawn. “And” between values parts separate entries of the source, which are not always exact repeats. Identical values can stand only once. Like-named read-outs stand apart in the source and are kept apart here.

Tests used:
[1] = tested on: Mycobacterium tuberculosis H37Ra; test: Antimycobacterial activity, green fluorescent protein microplate assay (GFPMA); assay type: cell-based; details: M. tuberculosis H37Ra, MIC = lowest concentration effecting inhibition of ≥90%; for MIC: Mycobacterium tuberculosis, read-out: Anti-TB (MIC)
Description: The antimycobacterial activity was assessed against Mycobacterium tuberculosis H37Ra using the green fluorescent protein microplate assay (GFPMA). The lowest drug concentration effecting and inhibition of ≥90% was considered the MIC.

[2] = tested on: human small cell lung cancer cell (NCI-H187); test: Cytotoxicity, resazurin microplate assay (REMA), NCI-H187; details: for IC50: Homo sapiens, NCI-H187, 120 h, read-out: Cytotoxicity (IC50) NCI-H187; for Selectivity Index NCI-H187: IC50 on Vero cells divided by IC50 for NCI-H187 cells
[3] = tested on: human oral cavity cancer cell (KB); test: Cytotoxicity, resazurin microplate assay (REMA), KB; details: for IC50 / pIC50: Homo sapiens, KB, 120 h, read-out: Cytotoxicity (IC50) KB, KB cells, REMA, 5 days; for pIC50: value in parentheses; for Selectivity Index KB: IC50 on Vero cells divided by IC50 for KB cells; for Cytotoxicity (IC50) KB: KB cells, REMA, 5 days
[4] = in vitro; details: African green monkey, Vero cells (African green monkey kidney, non-cancerous)
[5] = tested on: human breast cancer cell (MCF7); test: Cytotoxicity, resazurin microplate assay (REMA), MCF7; details: for Cytotoxicity (IC50) MCF7: MCF7 cells, REMA, 5 days; for IC50: Homo sapiens, MCF7, 120 h, read-out: Cytotoxicity (IC50) MCF7; for Selectivity Index MCF7: IC50 on Vero cells divided by IC50 for MCF7 cells
[6] = tested on: NCI-H187 cell; details: cited from earlier work
[7] = tested on: SNU-1 cells; design: method as in PMID 9873721; details: cited from earlier work
[8] = tested on: P388 cells; design: method as in PMID 9873721; details: cited from earlier work
[9] = tested on: B16 cells; design: method as in PMID 9873721; details: cited from earlier work
[10] = tested on: African green monkey kidney (Vero) cell line; test: Cytotoxicity against non-cancerous cells, GFP detection; details: 4 days, Undetectable = at concentration ≤50 μg/mL
[11] = tested on: V-79 cell; design: method as in PMID 3222377, PMID 21106458; details: cited from earlier work
[12] = tested on: KB cell; design: method as in PMID 18932088; details: cited from earlier work
[13] = tested on: MCF-7 cells; design: method as in PMID 21106458; details: read-out: LC50 MCF-7 cells; cited from earlier work
[14] = tested on: HeLa cells; design: method as in PMID 21106458; details: cited from earlier work
[15] = tested on: SK-N-SH cells; design: method as in PMID 21106458; details: read-out: LC50 SK-N-SH cells; cited from earlier work
[16] = tested on: A-549 cell line; design: method as in PMID 21106458; details: read-out: LC50 A-549 cell line; cited from earlier work

## C=C1CC[C@H]2C(C)(C)CCC[C@]2(C)[C@H]1CC=C(C=O)CC(=O)O (stereo in doubt) [Compound 9, zerumin A]
[1]
  Anti-TB (MIC): Inactive
[2]
  IC50: 33.5 µg/mL and 105 µM
  Selectivity Index NCI-H187: 1.5
[3]
  IC50: 47.4 µg/mL
  pIC50: 3.83
  Selectivity Index KB: 1.0
[4]
  IC50 at 4 days: 49.5 µg/mL and 155 µM
[5]
  Cytotoxicity (IC50) MCF7: Inactive

## C=C1CC[C@H]2C(C)(C)CCC[C@]2(C)[C@H]1/C=C/c1ccoc1 [Compound 1, coronarin E]
[6]
  pIC50: 4.30
[1]
  MIC: 12.5 µg/mL (≈ 43.9 µM)
[7]
  IC50 SNU-1 cells: 8.0 µg/mL (≈ 28.1 µM)
[2]
  IC50: 18.1 µg/mL and 63.5 µM
  Selectivity Index NCI-H187: 1.4
[8]
  IC50 P388 cells: 10.0 µg/mL (≈ 35.2 µM)
[3]
  IC50: 9.67 µg/mL
  pIC50: 4.47
  Selectivity Index KB: 2.6
[4]
  IC50 at 4 days: 25.4 µg/mL and 89.2 µM
[9]
  IC50 B16 cells: 18.8 µg/mL (≈ 66.1 µM)
[5]
  Cytotoxicity (IC50) MCF7: Inactive

## C=C1CC[C@H]2C(C)(C)CCC[C@]2(C)[C@H]1/C=C/C(C)=O [Compound 2, (E)-15,16-bisnorlabda-8(17),11-dien-13-one]
[1]
  Anti-TB (MIC): Inactive
[2]
  IC50: 21.7 µg/mL and 83.2 µM
[10]
  Cytotoxicity (IC50) Vero Cell: Undetectable ^2
[3]
  IC50: 37 µg/mL
  pIC50: 3.85
[4]
  IC50 at 4 days: > 192 µM
other
  melting point: 146 to 147 °C
[5]
  IC50: 49.2 µg/mL and 189 µM

## C=C1CC[C@H]2C(C)(C)CCC[C@]2(C)[C@H]1/C=C/C(=O)O [Compound 3, (E)-14,15,16-trinorlabda-8(17),11-dien-13-oic acid]
[1]
  Anti-TB (MIC): Inactive
[2]
  IC50: 49.2 µg/mL and 188 µM
[10]
  Cytotoxicity (IC50) Vero Cell: Undetectable ^2
[3]
  Cytotoxicity (IC50) KB: Inactive
[4]
  IC50 at 4 days: > 191 µM
[5]
  Cytotoxicity (IC50) MCF7: Inactive

## C=C1CC[C@H]2C(C)(C)CCC[C@]2(C)[C@H]1/C=C/C1=CCOC1=O [Compound 4, villosin]
[1]
  Anti-TB (MIC): Inactive
[2]
  IC50: 0.12 µg/mL and 400 nM
  Selectivity Index NCI-H187: >416.7
[10]
  Cytotoxicity (IC50) Vero Cell: Undetectable ^2
[3]
  IC50: 4.1 µg/mL
  pIC50: 4.86
[4]
  IC50 at 4 days: > 166 µM
[5]
  IC50: 8.5 µg/mL and 28.3 µM

## C=C1CC[C@H]2C(C)(C)CCC[C@]2(C)[C@H]1C/C=C(/C=O)CC=O [Compound 5, (E)-labda-8(17),12-dien-15,16-dial]
[1]
  Anti-TB (MIC): Inactive
[2]
  IC50: 11.2 µg/mL and 36.9 µM
  Selectivity Index NCI-H187: 2.0
[3]
  IC50: 29.1 µg/mL
  pIC50: 4.02
  Selectivity Index KB: 0.8
[11]
  IC50 V-79 cell: 18.5 µg/mL (≈ 61.2 µM)
[4]
  IC50 at 4 days: 22.5 µg/mL and 74.5 µM
[5]
  IC50: 22.6 µg/mL and 74.6 µM
  Selectivity Index MCF7: 1.0

## C=C1CCC2C(C)(C)CCC[C@]2(C)[C@H]1/C=C/C1=CC(OC)OC1=O (stereo partly drawn) [Compound 6, 15-methoxylabda-8(17),11,13-trien-15,16-olide]
[1]
  Anti-TB (MIC): Inactive
[2]
  IC50: 0.9 µg/mL and 2.72 µM
  Selectivity Index NCI-H187: 50.7
[3]
  IC50: 23.8 µg/mL
  pIC50: 4.14
  Selectivity Index KB: 1.9
[4]
  IC50 at 4 days: 45.6 µg/mL and 138 µM
[5]
  IC50: 49.2 µg/mL and 149 µM
  Selectivity Index MCF7: 0.9

## C=C1CC[C@H]2C(C)(C)CCC[C@]2(C)[C@H]1/C=C/C1=CC(=O)OC1O (stereo partly drawn) [Compound 7, 16-hydroxylabda-8(17),11,13-trien-15,16-olide]
[1]
  MIC: 6.25 µg/mL (≈ 19.8 µM)
[2]
  IC50: 0.72 µg/mL and 2.18 µM
  Selectivity Index NCI-H187: 7.5
[3]
  IC50: 0.92 µg/mL
  pIC50: 5.56
  Selectivity Index KB: 5.9
  Cytotoxicity (IC50) KB: 0.91 µg/mL
[4]
  IC50 at 4 days: 5.37 µg/mL and 16.2 µM
[5]
  IC50: 2.89 µg/mL and 8.75 µM
  Selectivity Index MCF7: 1.9

## C=C1CC[C@H]2C(C)(C)CCC[C@]2(C)[C@H]1C/C=C1\CC(O)OC1=O (stereo partly drawn) [Compound 8, coronarin D]
[12]
  IC50 KB cell, previous reported: 14.7 µg/mL (≈ 46.2 µM)
[6]
  IC50 NCI-H187 cell, previous reported: 9.8 µg/mL (≈ 30.8 µM)
[13]
  CC50: 21.9 µM
[1]
  Anti-TB (MIC): Inactive
[2]
  IC50: 25.7 µg/mL and 80.8 µM
  Selectivity Index NCI-H187: 1.9
[3]
  IC50: 40 µg/mL
  pIC50: 3.90
  Selectivity Index KB: 1.2
[11]
  IC50 V-79 cell: 17.0 µg/mL (≈ 53.4 µM)
[14]
  LC50: 60.6 µM
[4]
  IC50 at 4 days: 48.9 µg/mL and 154 µM
[5]
  IC50: 16.2 µg/mL and 51 µM
  Selectivity Index MCF7: 3.0
[15]
  CC50: 32 µM
[16]
  CC50: 14 µM

## C=C1CC[C@H]2C(C)(C)CCC[C@]2(C)[C@H]1C[C@@H](O)C1=CC(O)OC1=O (stereo partly drawn) [Compound 10, zerumin B]
[1]
  Anti-TB (MIC): Inactive
[2]
  IC50: 6.14 µg/mL and 18.4 µM
  Selectivity Index NCI-H187: 4.0
[3]
  IC50: 13.1 µg/mL
  pIC50: 4.41
  Selectivity Index KB: 1.9
[4]
  IC50 at 4 days: 24.7 µg/mL and 73.8 µM
[5]
  IC50: 13.3 µg/mL and 39.7 µM
  Selectivity Index MCF7: 1.9

## COc1cccc2c1C(=O)c1c(O)c3c(c(O)c1C2=O)C[C@@](O)(C(=O)CO)C[C@@H]3O[C@H]1C[C@H](N)[C@H](O)[C@H](C)O1 [Doxorubicin, reference compound]
[2]
  IC50: 0.053 µg/mL and 100 nM
[3]
  IC50: 0.117 µg/mL
  pIC50: 6.66
[5]
  IC50: 0.663 µg/mL and 1.22 µM

## Cc1c2ccncc2c(C)c2c1[nH]c1ccccc12 [Ellipticine, reference compound]
[2]
  IC50: 0.44 µg/mL and 1.79 µM
  Selectivity Index NCI-H187: 3.1
[3]
  IC50: 0.302 µg/mL
  pIC50: 5.91
  Selectivity Index KB: 4.5
[4]
  IC50 at 4 days: 1.34 µg/mL and 5.46 µM

## CC[C@@H](CO)NCCN[C@@H](CC)CO [ethambutol, reference compound]
[1]
  MIC: 0.234 to 0.469 µg/mL (≈ 1.15 to 2.3 µM)

## NNC(=O)c1ccncc1 [isoniazid, reference compound]
[1]
  MIC: 0.0234 to 0.0468 µg/mL (≈ 0.171 to 0.341 µM)

## CC1COc2c(N3CCN(C)CC3)c(F)cc3c(=O)c(C(=O)O)cn1c23 (stereo not drawn) [oflaxacin, reference compound]
[1]
  Anti-TB (MIC): 0.391 to 0.781 µg/mL

## CO[C@H]1/C=C/O[C@@]2(C)Oc3c(C)c(O)c4c(O)c(c(/C=N/N5CCN(C)CC5)c(O)c4c3C2=O)NC(=O)/C(C)=C\C=C\[C@H](C)[C@H](O)[C@@H](C)[C@@H](O)[C@@H](C)[C@H](OC(C)=O)[C@@H]1C [rifampicine, reference compound]
[1]
  MIC: 0.00312 to 0.025 µg/mL (≈ 0.00379 to 0.0304 µM)

## [H]/N=C(/N)N[C@H]1[C@H](O)[C@@H](O)[C@H](O[C@@H]2O[C@@H](C)[C@](O)(C=O)[C@H]2O[C@@H]2O[C@@H](CO)[C@H](O)[C@@H](O)[C@@H]2NC)[C@@H](N/C(N)=N\[H])[C@@H]1O [streptomycin, reference compound]
[1]
  MIC: 0.156 to 0.313 µg/mL (≈ 0.268 to 0.538 µM)
